Results from ChEMBL document CHEMBL1201862, “PubChem BioAssay data set” (2004).
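Five concentrations, 48 hours, 96-well plates. At the GI50, growth is halved.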 Calls of active or inactive are those of the source. Rule as the data show it: active = GI50 up to about 1.1 µM and inactive = higher.

Legend:
Test in all cases: inhibition of tumour cell growth, NCI panel, 48 h
SK-MEL-2 = system: SK-MEL-2
786-0 = system: 786-0
NCI-H226 = system: NCI-H226
A498 = system: A498
Malme-3M = system: Malme-3M
MCF7 = system: MCF7
Hs-578T = system: Hs-578T
HT-29 = system: HT-29
CCRF-CEM = system: CCRF-CEM
T47D = system: T47D
SNB-19 = system: SNB-19
EKVX = system: EKVX
OVCAR-4 = system: OVCAR-4
SF-539 = system: SF-539
SK-MEL-5 = system: SK-MEL-5
UACC-62 = system: UACC-62
LOX IMVI = system: LOX IMVI
ACHN = system: ACHN
MDA-MB-231 = system: MDA-MB-231
SK-OV-3 = system: SK-OV-3
COLO 205 = system: COLO 205
HOP-62 = system: HOP-62
SK-MEL-28 = system: SK-MEL-28
SN12C = system: SN12C
SF-295 = system: SF-295
NCI-H23 = system: NCI-H23
NCI-H460 = system: NCI-H460
HOP-92 = system: HOP-92
MOLT-4 = system: MOLT-4
UACC-257 = system: UACC-257
DU-145 = system: DU-145
CAKI-1 = system: CAKI-1
MDA-MB-435 = system: MDA-MB-435
RXF 393 = system: RXF 393
A549 = system: A549
SF-268 = system: SF-268
U-251 = system: U-251
BT-549 = system: BT-549
RPMI-8226 = system: RPMI-8226
HCT-116 = system: HCT-116
HL-60 = system: HL-60
M14 = system: M14
NCI/ADR-RES = system: NCI/ADR-RES
SR = system: SR
MDA-N = system: MDA-N
IGROV-1 = system: IGROV-1
SW-620 = system: SW-620
PC-3 = system: PC-3
K562 = system: K562
HCC 2998 = system: HCC 2998
NCI-H522 = system: NCI-H522
SNB-75 = system: SNB-75
OVCAR-8 = system: OVCAR-8
TK-10 = system: TK-10
HCT-15 = system: HCT-15
KM12 = system: KM12
OVCAR-5 = system: OVCAR-5
UO-31 = system: UO-31
OVCAR-3 = system: OVCAR-3

Measured: GI50

CC1(C)C2C=C(CCN3CCOCC3)CC1C2 (centres undefined)
inactive: SK-MEL-2 > 100 µM | 786-0 > 100 µM | NCI-H226 64.9 µM | A498 > 100 µM | Malme-3M > 100 µM | MCF7 > 100 µM | Hs-578T > 100 µM | HT-29 > 100 µM | CCRF-CEM > 100 µM | T47D > 100 µM | SNB-19 > 100 µM | EKVX > 100 µM | OVCAR-4 > 100 µM | SF-539 > 100 µM | SK-MEL-5 > 100 µM | UACC-62 > 100 µM | LOX IMVI > 100 µM | ACHN > 100 µM | MDA-MB-231 > 100 µM | SK-OV-3 > 100 µM | COLO 205 > 100 µM | HOP-62 > 100 µM | SK-MEL-28 > 100 µM | SN12C > 100 µM | SF-295 > 100 µM | NCI-H23 > 100 µM | NCI-H460 > 100 µM | HOP-92 15.3 µM | MOLT-4 > 100 µM | UACC-257 > 100 µM | DU-145 > 100 µM | CAKI-1 > 100 µM | MDA-MB-435 > 100 µM | RXF 393 > 100 µM | A549 > 100 µM | SF-268 > 100 µM | U-251 > 100 µM | BT-549 > 100 µM | RPMI-8226 > 100 µM | HCT-116 > 100 µM | HL-60 > 100 µM | M14 > 100 µM | NCI/ADR-RES > 100 µM | SR > 100 µM | MDA-N > 100 µM | IGROV-1 > 100 µM | SW-620 > 100 µM | PC-3 > 100 µM | K562 > 100 µM | HCC 2998 > 100 µM | NCI-H522 > 100 µM | SNB-75 71.3 µM | OVCAR-8 > 100 µM | TK-10 > 100 µM | KM12 > 100 µM | OVCAR-5 > 100 µM | UO-31 > 100 µM | OVCAR-3 > 100 µM
> 100 µM: HCT-15
